The text below walks through data of ChEMBL document CHEMBL5252527, “An Update on Poly(ADP-ribose)polymerase-1 (PARP-1) Inhibitors: Opportunities and Challenges in Cancer Therapy” (J Med Chem, 2016).

Series [1] concerns the target T1, Poly [ADP-ribose] polymerase 1 (Homo sapiens, UniProt P09874). Briefly: Inhibition of human PARP-1 using histone as substrate incubated for 16 hrs by ELISA assay. On the technique in general: In an ELISA, binding on a coated surface is turned into a signal by an enzyme label.
The species entered for another series is Homo sapiens. Kind of series: Selectivity index, ratio of IC50 of human PARP-1 to IC50 of human PARP-2.
The subject of a further series is U-251. Kind of series: Inhibition of human PARP expressed in U-251 cells at 3 uM relative to control. The format is cell-based.
Series [2] deals with T1, Poly [ADP-ribose] polymerase 1. Briefly: Inhibition of PARP-1 (unknown origin) assessed as inhibition constant.
Series [3] has as its target Poly [ADP-ribose] polymerase 1 (Mus musculus, UniProt P11103). Kind of series: Inhibition of mouse recombinant PARP-1 incubated for 60 mins.
Series [4] concerns the target T1, Poly [ADP-ribose] polymerase 1. Kind of series: Inhibition of PARP-1 (unknown origin).
The target of series [5] is T2, Poly [ADP-ribose] polymerase 2 (Homo sapiens, UniProt Q9UGN5). Kind of series: Inhibition of PARP-2 (unknown origin).
For series [6], the target named is T2, Poly [ADP-ribose] polymerase 2. Kind of series: Inhibition of human PARP-2 incubated for 18 to 20 hrs by scintillation proximity assay.
In series [7] the target is T1, Poly [ADP-ribose] polymerase 1. Briefly: Inhibition of human PARP-1.
Series [8] addresses Poly [ADP-ribose] polymerase 1 (Bos taurus, UniProt P18493). Kind of series: Inhibition of calf thymus PARP-1.
Series [9] can be described thus: Inhibition of calf thymus […]. The arrangement: species or system Bos taurus.
Series [10] can be described thus: Oral bioavailability in rat. Format: ADME, organism-based. The conditions noted are these: in vivo.
The nature of series [11]: Half life in rat. The format is ADME. The note with it: in vivo.

Bounds are passed on as bounds.

T1 sequence (P09874 whole entry): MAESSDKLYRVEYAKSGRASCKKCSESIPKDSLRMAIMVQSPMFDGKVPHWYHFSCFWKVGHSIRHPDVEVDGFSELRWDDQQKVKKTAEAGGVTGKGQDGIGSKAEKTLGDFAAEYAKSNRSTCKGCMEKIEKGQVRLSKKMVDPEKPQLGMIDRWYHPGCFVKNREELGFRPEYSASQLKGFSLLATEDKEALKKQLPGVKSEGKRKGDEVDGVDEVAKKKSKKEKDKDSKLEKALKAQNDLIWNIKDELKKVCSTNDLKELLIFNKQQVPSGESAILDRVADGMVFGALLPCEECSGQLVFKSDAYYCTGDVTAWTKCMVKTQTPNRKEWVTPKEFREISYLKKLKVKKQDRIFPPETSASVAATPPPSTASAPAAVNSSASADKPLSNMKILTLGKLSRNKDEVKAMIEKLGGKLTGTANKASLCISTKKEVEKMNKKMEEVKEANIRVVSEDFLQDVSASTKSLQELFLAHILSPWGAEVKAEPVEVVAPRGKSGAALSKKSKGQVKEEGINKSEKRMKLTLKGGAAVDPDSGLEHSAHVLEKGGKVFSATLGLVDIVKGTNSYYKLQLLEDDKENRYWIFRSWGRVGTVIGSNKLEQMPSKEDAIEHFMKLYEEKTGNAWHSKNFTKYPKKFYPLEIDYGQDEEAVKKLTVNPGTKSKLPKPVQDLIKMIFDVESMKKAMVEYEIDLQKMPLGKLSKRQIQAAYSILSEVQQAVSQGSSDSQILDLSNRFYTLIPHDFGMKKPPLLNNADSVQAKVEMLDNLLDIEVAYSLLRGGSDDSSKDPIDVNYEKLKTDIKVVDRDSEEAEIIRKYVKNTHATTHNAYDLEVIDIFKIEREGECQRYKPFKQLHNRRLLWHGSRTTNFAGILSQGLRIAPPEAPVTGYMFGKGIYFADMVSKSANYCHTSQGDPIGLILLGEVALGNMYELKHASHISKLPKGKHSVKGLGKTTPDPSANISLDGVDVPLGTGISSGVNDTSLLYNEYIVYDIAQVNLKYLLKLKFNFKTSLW
T2 sequence (Q9UGN5 whole entry): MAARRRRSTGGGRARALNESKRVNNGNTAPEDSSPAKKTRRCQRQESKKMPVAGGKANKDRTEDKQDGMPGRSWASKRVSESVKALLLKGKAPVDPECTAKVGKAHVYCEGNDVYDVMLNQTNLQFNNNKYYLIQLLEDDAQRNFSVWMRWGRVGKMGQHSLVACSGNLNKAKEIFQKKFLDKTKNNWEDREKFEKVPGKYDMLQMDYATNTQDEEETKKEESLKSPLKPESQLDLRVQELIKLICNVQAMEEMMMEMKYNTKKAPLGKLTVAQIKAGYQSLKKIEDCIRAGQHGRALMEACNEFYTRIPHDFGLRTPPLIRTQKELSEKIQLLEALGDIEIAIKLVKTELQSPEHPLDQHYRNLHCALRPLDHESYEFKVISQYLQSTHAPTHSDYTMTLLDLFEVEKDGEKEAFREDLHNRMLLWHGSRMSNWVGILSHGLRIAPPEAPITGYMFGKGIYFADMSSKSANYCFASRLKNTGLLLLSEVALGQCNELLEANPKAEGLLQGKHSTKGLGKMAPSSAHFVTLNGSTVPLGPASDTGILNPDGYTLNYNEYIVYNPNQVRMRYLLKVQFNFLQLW
Sequence of Poly [ADP-ribose] polymerase 1 (Mus musculus, UniProt P11103) (P11103 whole entry): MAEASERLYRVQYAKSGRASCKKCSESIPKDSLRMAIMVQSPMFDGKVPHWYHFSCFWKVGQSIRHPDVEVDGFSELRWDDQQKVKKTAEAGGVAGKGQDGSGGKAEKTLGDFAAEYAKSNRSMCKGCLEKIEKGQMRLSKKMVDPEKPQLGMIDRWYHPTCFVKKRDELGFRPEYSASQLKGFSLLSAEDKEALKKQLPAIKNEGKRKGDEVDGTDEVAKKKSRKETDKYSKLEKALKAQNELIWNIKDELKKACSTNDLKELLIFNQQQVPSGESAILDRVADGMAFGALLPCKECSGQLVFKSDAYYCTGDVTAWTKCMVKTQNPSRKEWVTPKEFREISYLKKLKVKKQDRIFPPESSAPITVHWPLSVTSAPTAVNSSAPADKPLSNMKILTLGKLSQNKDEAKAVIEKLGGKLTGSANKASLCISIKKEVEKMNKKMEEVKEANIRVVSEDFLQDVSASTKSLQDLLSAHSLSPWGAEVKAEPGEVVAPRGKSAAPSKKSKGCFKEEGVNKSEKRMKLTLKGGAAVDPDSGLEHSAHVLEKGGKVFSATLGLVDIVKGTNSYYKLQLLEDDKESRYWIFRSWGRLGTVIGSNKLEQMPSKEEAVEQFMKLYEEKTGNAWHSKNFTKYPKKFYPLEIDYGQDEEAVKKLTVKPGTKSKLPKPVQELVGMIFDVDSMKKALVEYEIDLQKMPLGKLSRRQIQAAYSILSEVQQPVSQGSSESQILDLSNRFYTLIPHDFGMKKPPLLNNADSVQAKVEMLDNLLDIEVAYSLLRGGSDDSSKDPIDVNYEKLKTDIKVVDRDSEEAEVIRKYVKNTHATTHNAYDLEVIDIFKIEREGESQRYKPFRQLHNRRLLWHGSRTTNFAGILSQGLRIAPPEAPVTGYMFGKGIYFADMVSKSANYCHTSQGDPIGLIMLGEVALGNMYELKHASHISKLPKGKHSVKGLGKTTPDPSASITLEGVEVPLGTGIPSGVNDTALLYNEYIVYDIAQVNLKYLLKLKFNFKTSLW
Sequence of Poly [ADP-ribose] polymerase 1 (Bos taurus, UniProt P18493) (P18493 whole entry): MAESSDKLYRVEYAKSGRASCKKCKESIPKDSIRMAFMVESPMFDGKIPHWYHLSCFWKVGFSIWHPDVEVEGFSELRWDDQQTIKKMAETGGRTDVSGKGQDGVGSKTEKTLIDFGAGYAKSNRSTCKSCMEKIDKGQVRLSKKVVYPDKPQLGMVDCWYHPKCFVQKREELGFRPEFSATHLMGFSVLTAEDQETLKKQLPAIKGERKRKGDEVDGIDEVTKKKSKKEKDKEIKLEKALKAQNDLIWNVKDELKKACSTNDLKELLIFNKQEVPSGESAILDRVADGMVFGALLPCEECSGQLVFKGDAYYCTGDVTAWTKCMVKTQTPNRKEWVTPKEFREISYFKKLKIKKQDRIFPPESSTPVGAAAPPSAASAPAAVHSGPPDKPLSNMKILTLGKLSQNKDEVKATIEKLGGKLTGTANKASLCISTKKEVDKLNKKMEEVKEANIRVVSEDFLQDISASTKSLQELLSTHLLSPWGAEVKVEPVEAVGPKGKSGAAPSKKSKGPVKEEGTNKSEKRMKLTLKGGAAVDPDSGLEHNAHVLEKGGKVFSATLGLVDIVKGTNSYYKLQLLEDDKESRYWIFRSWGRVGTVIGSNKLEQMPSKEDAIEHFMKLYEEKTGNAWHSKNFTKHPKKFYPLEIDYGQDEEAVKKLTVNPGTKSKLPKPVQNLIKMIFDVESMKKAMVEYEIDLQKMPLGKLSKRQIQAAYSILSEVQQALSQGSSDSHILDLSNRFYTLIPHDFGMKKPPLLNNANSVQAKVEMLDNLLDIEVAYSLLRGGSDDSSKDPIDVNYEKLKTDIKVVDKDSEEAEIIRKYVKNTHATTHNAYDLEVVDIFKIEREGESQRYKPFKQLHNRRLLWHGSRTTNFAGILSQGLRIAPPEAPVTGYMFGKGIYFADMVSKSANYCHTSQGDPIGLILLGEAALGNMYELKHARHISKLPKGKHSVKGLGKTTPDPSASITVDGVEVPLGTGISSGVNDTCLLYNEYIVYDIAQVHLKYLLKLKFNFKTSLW

What is called IC50 is the concentration needed to halve the response being measured. In turn, `CC(C)(C)[Si](C)(C)OCCCN1CCN(C(=O)c2cc(Cn3c(=O)[nH]c(=O)c4ccccc43)ccc2F)CC1=O` registered an IC50 in series [1] of 1.29 nM. In addition, the Ratio IC50 in the series listed under Homo sapiens was found to be 8.
The term inhibition denotes how much of the control response was suppressed. A lower inhibition goes with little suppression. The term Ki denotes the equilibrium dissociation constant of an inhibitor or competing ligand from its target. Take `O=c1[nH]nc2c3c(cccc13)Oc1ccc(CN3CCC(O)CC3)cc1-2` [E-7016]: in the series on U-251, the inhibition was 84%. The Ki in [2] came out at 50 nM.
For `O=C(Nc1cccc2c(=O)[nH]ccc12)c1ccccc1`, the IC50 in series [3] was found to be 1500 nM.
Take `COc1cccc2[nH]c3c4c(c5c(c3c12)C(=O)N(CN1CCN(C)CC1)C5=O)CCC4` [CEP-9722]: the values for the IC50 in series [4] and in [5] were 20 nM and 6 nM, respectively.
Consider `C[C@]12CCCN1CC1=NNC(=O)c3cc(F)cc4[nH]c2c1c34` [PAMIPARIB], for which the half-maximal inhibitory concentration (IC50) in [5] was 0.11 nM.
As to `Cn1cccc1/C=C1\C(=O)NC(=O)c2ccccc21`, half-maximal inhibition in series [6] (IC50) was put at 4000 nM.
`NC(=O)c1ccc(I)c([N+](=O)[O-])c1` [INIPARIB] came in with an IC50 in series [7] of 100000 nM.
As to `Cc1cccc2c(=O)[nH]c(CCCN3CC=C(c4ccc(F)cc4)CC3)nc12`, the figures for the IC50 in [8] and in [9] were 16 nM and 167 nM, respectively.
In general, bioavailability refers to the share of a dose that reaches the circulation, judged against a reference dose that is usually intravenous. Turning to `Cn1ncnc1[C@H]1c2n[nH]c(=O)c3cc(F)cc(c23)N[C@@H]1c1ccc(F)cc1` [TALAZOPARIB], the bioavailability in series [10] is greater than 40%. In series [11], this compound registered a t1/2 of 40 h.
